Measured values reported in patent publication US9610274B2, “Methods for treating bipolar disorder” (priority 2010, dated 2017).

Key:
[1] = biological target: T1, hDAT (human dopamine transporter) (Homo sapiens, UniProt Q01959); experiment: Inhibition of [125I]RTI-55 binding to hDAT in HEK293 cell membranes; details: HEK-hDAT cells; mean ± SEM
T1 construct: expressed in transfected cells; host or cells: HEK293 (ATCC), puromycin-selected clonal cells

[2] = system: adult human subjects with moderate or severe major depression without psychotic features; experiment: Randomized double-blind placebo- and active-controlled 6-week study in major depression; format: in vivo; details: for MADRS response rate / MADRS remission rate: Week 6; for MADRS response rate: >50% improvement in MADRS total score; for MADRS remission rate: MADRS total score less than 9; for 3 Atypical items of HAM-D 31, mean result / CGI-S score, mean result / MADRS core mood subscale, mean result / MADRS sadness (Items 1 + 2), mean result / MADRS total score (primary), mean result / MADRS total score, mean result: change from baseline at Week 6; for ABCD questionnaire items with statistically significant superiority to placebo: post hoc analyses, of 51 items, U.S. sites
Method: The primary objective of this study was to determine the efficacy of 2 target doses of test compound (200 and 400 mg/day) in comparison with placebo during 6 weeks of treatment in adult human subjects with moderate or severe major depression without psychotic features. An active comparator (paroxetine) was included to assist in distinguishing a negative study from a failed study. In addition, an exit interview was intended to gather information on unexpected benefits of the test compound in order to refine the clinical development program. […] In addition, positive effects of the test compound on ratings of physical energy/fitness, reduction in sadness or depression and mental energy or motivation.
This was a randomized, double-blind, parallel-group, active, and placebo-controlled, multicenter study conducted in the U.S. (23 centers) and Canada (4 centers). There were 2 phases: a pretreatment phase (screening/washout and a baseline visit) and a 6-week, double-blind treatment phase. Paroxetine, a positive control, was included to evaluate assay sensitivity. After washout (if needed) of prohibited substances, subjects were randomly assigned (1:1:1:1) to receive the test compound titrated to a target dose of 200 mg/day or 400 mg/day, matching placebo, or a fixed dose (20 mg/day) of paroxetine. Study drug was given twice daily for 6 weeks. Efficacy and safety were assessed weekly during the double-blind phase. Subjects completing the study underwent an Exit Interview (“Your Health and Well-Being”) and completed an Assessment of Benefits of Clinical-trial Drug-treatment (ABCD) questionnaire (U.S. sites only).

[3] = biological target: T2, hNET (human norepinephrine transporter) (Homo sapiens, UniProt P23975); format: binding; details: HEK-hNET cells; mean ± SEM
T2 construct: expressed in transfected cells; host or cells: HEK293 (ATCC), geneticin-selected clonal cells
T2 sequence (P23975 whole entry): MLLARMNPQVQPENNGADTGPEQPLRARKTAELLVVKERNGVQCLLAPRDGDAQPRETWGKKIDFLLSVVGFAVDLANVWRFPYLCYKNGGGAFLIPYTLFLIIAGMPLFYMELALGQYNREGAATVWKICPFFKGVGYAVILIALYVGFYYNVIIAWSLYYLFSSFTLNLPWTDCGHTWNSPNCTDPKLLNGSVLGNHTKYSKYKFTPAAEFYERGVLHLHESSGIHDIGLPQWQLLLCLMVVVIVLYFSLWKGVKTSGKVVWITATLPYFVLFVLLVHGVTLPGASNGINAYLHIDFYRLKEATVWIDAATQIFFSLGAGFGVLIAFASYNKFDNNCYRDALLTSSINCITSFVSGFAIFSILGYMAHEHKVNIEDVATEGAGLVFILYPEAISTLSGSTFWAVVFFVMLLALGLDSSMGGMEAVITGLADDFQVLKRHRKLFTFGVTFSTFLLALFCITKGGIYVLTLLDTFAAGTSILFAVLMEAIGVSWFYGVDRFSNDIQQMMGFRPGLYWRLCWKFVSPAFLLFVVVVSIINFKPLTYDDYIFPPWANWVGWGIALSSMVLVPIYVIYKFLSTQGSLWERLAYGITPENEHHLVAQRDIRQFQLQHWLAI

[4] = Per-Protocol (LOCF), TC 200 mg/day
[5] = Per-Protocol (LOCF), TC 400 mg/day

T1 sequence (Q01959 whole entry): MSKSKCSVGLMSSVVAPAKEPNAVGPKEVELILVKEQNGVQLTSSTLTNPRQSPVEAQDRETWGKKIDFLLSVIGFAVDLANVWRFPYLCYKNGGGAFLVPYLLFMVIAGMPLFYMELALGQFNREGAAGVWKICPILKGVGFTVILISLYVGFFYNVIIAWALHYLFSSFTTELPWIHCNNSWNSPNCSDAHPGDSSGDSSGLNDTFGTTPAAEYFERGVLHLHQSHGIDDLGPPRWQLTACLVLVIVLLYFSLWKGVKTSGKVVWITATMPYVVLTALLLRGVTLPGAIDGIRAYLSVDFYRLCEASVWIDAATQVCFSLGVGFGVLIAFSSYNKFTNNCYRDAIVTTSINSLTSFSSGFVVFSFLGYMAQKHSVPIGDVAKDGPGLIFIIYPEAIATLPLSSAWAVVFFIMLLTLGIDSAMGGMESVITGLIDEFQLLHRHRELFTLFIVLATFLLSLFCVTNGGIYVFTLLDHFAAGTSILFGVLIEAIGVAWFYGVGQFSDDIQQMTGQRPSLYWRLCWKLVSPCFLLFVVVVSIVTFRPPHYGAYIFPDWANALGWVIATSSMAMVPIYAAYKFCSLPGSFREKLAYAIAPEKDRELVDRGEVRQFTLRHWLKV

Question: What does the source list for NC(=O)OC[C@H](N)Cc1ccccc1 [test compound, O-carbamoyl-(D)-phenylalaninol]?
Answer: Hill coefficient [1]: −0.77 ± 0.12; MADRS response rate ([2]; ITT (LOCF), TC 200 mg/day): 36%; MADRS response rate ([2]; ITT (LOCF), TC 400 mg/day): 41%; MADRS remission rate ([2]; ITT (LOCF), TC 200 mg/day): 15%; MADRS remission rate ([2]; ITT (LOCF), TC 400 mg/day): 19%; 3 Atypical items of HAM-D 31, mean result ([2]; ITT (LOCF), TC 200 mg/day): −0.4; CGI-S score, mean result ([2]; ITT (LOCF), TC 200 mg/day): −1.2; MADRS core mood subscale, mean result ([2]; ITT (LOCF), TC 200 mg/day): −8.6; MADRS sadness (Items 1 + 2), mean result ([2]; ITT (LOCF), TC 200 mg/day): −3.2; MADRS total score (primary), mean result ([2]; ITT (LOCF), TC 200 mg/day): −12.1; 3 Atypical items of HAM-D 31, mean result ([2]; ITT (LOCF), TC 400 mg/day): −0.8; CGI-S score, mean result ([2]; ITT (LOCF), TC 400 mg/day): −1.3; MADRS core mood subscale, mean result ([2]; ITT (LOCF), TC 400 mg/day): −8.7; MADRS sadness (Items 1 + 2), mean result ([2]; ITT (LOCF), TC 400 mg/day): −3.4; MADRS total score (primary), mean result ([2]; ITT (LOCF), TC 400 mg/day): −12.4; superiority to placebo on the primary endpoint (change from baseline at Week 6 in MADRS total score) ([2]; ITT (LOCF), test compound 200 mg and 400 mg, paroxetine 20 mg/day): Neither the 200-mg nor the 400-mg dose of the test compound was statistically significantly superior to placebo; MADRS response rate [2, 4]: 40%; MADRS response rate [2, 5]: 50%; MADRS remission rate [2, 4]: 20%; MADRS remission rate [2, 5]: 29%; CGI-S score, mean result [2, 4]: −1.5; MADRS total score, mean result [2, 4]: −14.8; CGI-S score, mean result [2, 5]: −1.6; MADRS total score, mean result [2, 5]: −15.0; superiority to placebo on the primary endpoint, men ([2]; men, test compound 200 mg): nominally statistically significant superiority to placebo; ABCD questionnaire items with statistically significant superiority to placebo ([2]; test compound 200 mg): 14 items; ABCD questionnaire items with statistically significant superiority to placebo ([2]; test compound 400 mg): 8 items; superiority to placebo on the primary endpoint, women ([2]; women, test compound 400 mg): statistically significant superiority to placebo; Hill coefficient [3]: −1.45 ± 0.34
